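The compound was tested at five concentrations on cells cultured in 96-well plates, with a 48-hour exposure period. TGI denotes the concentration required for complete inhibition of growth.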
Key:
Assay in all cases: NCI tumour cell line growth inhibition, 48 h
OVCAR-8 ovarian = system: OVCAR-8 ovarian
HCT-116 colon = system: HCT-116 colon
M14 melanoma = system: M14 melanoma
786-0 renal = system: 786-0 renal
TK-10 renal = system: TK-10 renal
HCT-15 colon = system: HCT-15 colon
NCI-H226 lung = system: NCI-H226 lung
SK-OV-3 ovarian = system: SK-OV-3 ovarian
MCF7 breast = system: MCF7 breast
SNB-19 CNS = system: SNB-19 CNS
MDA-MB-231 breast = system: MDA-MB-231 breast
SK-MEL-5 melanoma = system: SK-MEL-5 melanoma
OVCAR-3 ovarian = system: OVCAR-3 ovarian
DU-145 prostate = system: DU-145 prostate
K-562 leukemia = system: K-562 leukemia
SK-MEL-28 melanoma = system: SK-MEL-28 melanoma
U251 CNS = system: U251 CNS
RXF 393 renal = system: RXF 393 renal
SF-539 CNS = system: SF-539 CNS
BT-549 breast = system: BT-549 breast
SN12C renal = system: SN12C renal
CCRF-CEM leukemia = system: CCRF-CEM leukemia
NCI-H460 lung = system: NCI-H460 lung
KM12 colon = system: KM12 colon
UACC-62 melanoma = system: UACC-62 melanoma
HCC-2998 colon = system: HCC-2998 colon
OVCAR-4 ovarian = system: OVCAR-4 ovarian
MDA-MB-435 = system: MDA-MB-435
COLO 205 colon = system: COLO 205 colon
NCI-H522 lung = system: NCI-H522 lung
SNB-75 CNS = system: SNB-75 CNS
IGROV1 ovarian = system: IGROV1 ovarian
HS 578T breast = system: HS 578T breast
EKVX NSCLC = system: EKVX NSCLC
LOX IMVI melanoma = system: LOX IMVI melanoma
CAKI-1 renal = system: CAKI-1 renal
NCI/ADR-RES ovarian = system: NCI/ADR-RES ovarian
SK-MEL-2 melanoma = system: SK-MEL-2 melanoma
RPMI-8226 leukemia = system: RPMI-8226 leukemia
SW-620 colon = system: SW-620 colon
MALME-3M melanoma = system: MALME-3M melanoma
MOLT-4 leukemia = system: MOLT-4 leukemia
UACC-257 melanoma = system: UACC-257 melanoma
NCI-H23 lung = system: NCI-H23 lung
HT29 colon = system: HT29 colon
PC-3 prostate = system: PC-3 prostate
A549 NSCLC = system: A549 NSCLC
A498 renal = system: A498 renal
UO-31 renal = system: UO-31 renal
SF-268 CNS = system: SF-268 CNS
MDA-N = system: MDA-N
OVCAR-5 ovarian = system: OVCAR-5 ovarian
HL-60(TB) leukemia = system: HL-60(TB) leukemia
T-47D breast = system: T-47D breast
SR leukemia = system: SR leukemia
HOP-62 NSCLC = system: HOP-62 NSCLC
HOP-92 NSCLC = system: HOP-92 NSCLC
SF-295 CNS = system: SF-295 CNS
ACHN renal = system: ACHN renal

SMILES: Cn1c(=O)n2c(=O)n(C)c(=O)n2c1=O
- TGI (OVCAR-8 ovarian): > 100 µM
- TGI (HCT-116 colon): > 100 µM
- TGI (M14 melanoma): > 100 µM
- TGI (786-0 renal): > 100 µM
- TGI (TK-10 renal): > 100 µM
- TGI (HCT-15 colon): > 100 µM
- TGI (NCI-H226 lung): > 100 µM
- TGI (SK-OV-3 ovarian): > 100 µM
- TGI (MCF7 breast): > 100 µM
- TGI (SNB-19 CNS): > 100 µM
- TGI (MDA-MB-231 breast): > 100 µM
- TGI (SK-MEL-5 melanoma): > 100 µM
- TGI (OVCAR-3 ovarian): > 100 µM
- TGI (DU-145 prostate): > 100 µM
- TGI (K-562 leukemia): > 100 µM
- TGI (SK-MEL-28 melanoma): > 100 µM
- TGI (U251 CNS): > 100 µM
- TGI (RXF 393 renal): > 100 µM
- TGI (SF-539 CNS): > 100 µM
- TGI (BT-549 breast): > 100 µM
- TGI (SN12C renal): > 100 µM
- TGI (CCRF-CEM leukemia): > 100 µM
- TGI (NCI-H460 lung): > 100 µM
- TGI (KM12 colon): > 100 µM
- TGI (UACC-62 melanoma): > 100 µM
- TGI (HCC-2998 colon): > 100 µM
- TGI (OVCAR-4 ovarian): > 100 µM
- TGI (MDA-MB-435): > 100 µM
- TGI (COLO 205 colon): > 100 µM
- TGI (NCI-H522 lung): > 100 µM
- TGI (SNB-75 CNS): > 100 µM
- TGI (IGROV1 ovarian): > 100 µM
- TGI (HS 578T breast): > 100 µM
- TGI (EKVX NSCLC): > 100 µM
- TGI (LOX IMVI melanoma): > 100 µM
- TGI (CAKI-1 renal): > 100 µM
- TGI (NCI/ADR-RES ovarian): > 100 µM
- TGI (SK-MEL-2 melanoma): > 100 µM
- TGI (RPMI-8226 leukemia): > 100 µM
- TGI (SW-620 colon): > 100 µM
- TGI (MALME-3M melanoma): > 100 µM
- TGI (MOLT-4 leukemia): > 100 µM
- TGI (UACC-257 melanoma): > 100 µM
- TGI (NCI-H23 lung): > 100 µM
- TGI (HT29 colon): > 100 µM
- TGI (PC-3 prostate): > 100 µM
- TGI (A549 NSCLC): > 100 µM
- TGI (A498 renal): > 100 µM
- TGI (UO-31 renal): > 100 µM
- TGI (SF-268 CNS): > 100 µM
- TGI (MDA-N): > 100 µM
- TGI (OVCAR-5 ovarian): > 100 µM
- TGI (HL-60(TB) leukemia): > 100 µM
- TGI (T-47D breast): > 100 µM
- TGI (SR leukemia): > 100 µM

SMILES: O=C1/C(=C/c2ccc(Cl)cc2)CCC/C1=C\c1ccc(O)c(CN2CCCCC2)c1
- TGI (HOP-62 NSCLC): > 100 µM
- TGI (OVCAR-8 ovarian): 48.8 µM
- TGI (HCT-116 colon): 33.5 µM
- TGI (M14 melanoma): 49.3 µM
- TGI (786-0 renal): 34.5 µM
- TGI (TK-10 renal): 79.2 µM
- TGI (HCT-15 colon): 27.2 µM
- TGI (NCI-H226 lung): 35.5 µM
- TGI (SK-OV-3 ovarian): 89.5 µM
- TGI (MCF7 breast): > 100 µM
- TGI (SNB-19 CNS): > 100 µM
- TGI (MDA-MB-231 breast): 63.6 µM
- TGI (HOP-92 NSCLC): 42.1 µM
- TGI (SK-MEL-5 melanoma): 35.3 µM
- TGI (OVCAR-3 ovarian): 87.5 µM
- TGI (DU-145 prostate): 36.9 µM
- TGI (K-562 leukemia): 66.1 µM
- TGI (SK-MEL-28 melanoma): 62.6 µM
- TGI (U251 CNS): 57.1 µM
- TGI (SF-539 CNS): 58.3 µM
- TGI (BT-549 breast): 31 µM
- TGI (SN12C renal): 87.8 µM
- TGI (CCRF-CEM leukemia): 35 µM
- TGI (NCI-H460 lung): 94.3 µM
- TGI (KM12 colon): 16.7 µM
- TGI (UACC-62 melanoma): 36 µM
- TGI (HCC-2998 colon): 38.7 µM
- TGI (OVCAR-4 ovarian): 44.2 µM
- TGI (MDA-MB-435): > 100 µM
- TGI (COLO 205 colon): 59.3 µM
- TGI (SNB-75 CNS): > 100 µM
- TGI (IGROV1 ovarian): 44 µM
- TGI (HS 578T breast): 46 µM
- TGI (EKVX NSCLC): 40.7 µM
- TGI (SF-295 CNS): 43.3 µM
- TGI (LOX IMVI melanoma): 42.5 µM
- TGI (CAKI-1 renal): 40.2 µM
- TGI (NCI/ADR-RES ovarian): 51.8 µM
- TGI (SK-MEL-2 melanoma): > 100 µM
- TGI (SW-620 colon): > 100 µM
- TGI (MALME-3M melanoma): 59.1 µM
- TGI (MOLT-4 leukemia): 69.4 µM
- TGI (UACC-257 melanoma): 90.7 µM
- TGI (NCI-H23 lung): 49.1 µM
- TGI (HT29 colon): 17.5 µM
- TGI (PC-3 prostate): > 100 µM
- TGI (A549 NSCLC): > 100 µM
- TGI (A498 renal): 30 µM
- TGI (UO-31 renal): 31.5 µM
- TGI (MDA-N): > 100 µM
- TGI (ACHN renal): 30.7 µM
- TGI (OVCAR-5 ovarian): 50.4 µM
- TGI (HL-60(TB) leukemia): 7.25 µM
- TGI (T-47D breast): 63.5 µM
- TGI (SR leukemia): 9.67 µM

— PubChem BioAssay (NCI)
